# According to patent US20090275085A1, “Enzyme for Obtaining Prebiotic Oligosaccharides” (CONSEJO SUPERIOR DE INVESTIGACIONES CIENTIFICAS, priority 2004, published 2009):
# What was measured:
# [1] = system: purified X. dendrorhous enzyme (F-3); test: Glycosyltransferase activity: incubating maltose (240 g/l) with the purified X. dendrorhous enzyme (F-3), HPLC analysis; assay type: biochemical, Xanthophyllomyces dendrorhous; conditions: for composition of the system: after 288 hours, maltose 240 g/l, 0.7 μg α-glucosidase, pH 5.4, 40° C., 200 rpm; for Composition of the reaction mixture: 240 g maltose/l, 0.2 M sodium acetate pH 5.4, 40° C., 150 rpm
# Procedure: 0.7 μg of α-glucosidase from the pure solution of α-glucosidase corresponding to fraction 3 of TABLE 2 were added. […] Aliquots were extracted at different times and incubated for 5 minutes at 80° C. to inactivate the enzyme. They were diluted to 1:4 (v/v) with water, centrifuged for 5 minutes at 6000 rpm in an Eppendorf tube with a 0.45 μam filter and analyzed by HPLC liquid chromatography.
# [2] = system: X. dendrorhous α-glucosidase, enzyme purified to homogeneity (F-3); test: α-glucosidase (hydrolytic) activity of the X. dendrorhous F-3 fraction on different substrates; assay type: biochemical, Xanthophyllomyces dendrorhous; conditions: for hydrolytic activity observed on substrate: enzyme purified to homogeneity (F-3); for Specific activity: F-3 fraction, purified protein, 1% concentration of substrate
# Procedure: (§1) The cell-free fraction was obtained by centrifugation (F-0) and α-glucosidase activity in this fraction was tested, assessing the release of glucose on different substrates. A […] test and standard methodology were used. The released glucose was quantified using the glucose oxidase-peroxidase coupled reaction: 0.4 ml of the solution to be assessed was mixed with 0.1 ml of A:B solution (20:1) (A: 0.85 U/ml glucose oxidase, 0.40 U/ml peroxidase in sodium phosphate buffer pH 5; B: 0.6% O-dianisidine). It was incubated for 30 minutes at 37° C. and spectrophotometrically quantified at 450 nm. A standard glucose curve (1 to 100 μg/ml) was used. The α-glucosidase activity unit is defined as the amount of enzyme required to release 20 μg/ml of glucose under the described conditions.
# The hydrolytic activity of the enzyme purified to homogeneity (F-3) following the described process was tested on different substrates.
# [3] = system: X. dendrorhous extracellular fraction α-glucosidase; test: α-glucosidase activity of the X. dendrorhous extracellular (cell-free, F-0) fraction on different glucose polymers, glucose release by glucose oxidase-peroxidase; assay type: biochemical, Xanthophyllomyces dendrorhous; conditions: for α-glucosidase activity detected on substrate: cell-free fraction (F-0); for Specific activity: X. dendrorhous extracellular fraction (F-0), release of glucose
# Procedure: The production of α-glucosidase activity was analyzed in X. dendrorhous cultures grown in minimal medium for yeasts: 0.7% YNB (Yeast Nitrogen Base w/o Amino acids, DIFCO) (w/v), 2% carbon source. The cultures were carried out in glass flasks incubated at 24° C. and with constant stirring at 160 rpm.
# as §1
# [4] = target: X. dendrorhous α-glucosidase (purified enzyme) (Phaffia rhodozyma, UniProt A0A0U2M4R6); test: Kinetic constants of X. dendrorhous α-glucosidase glycosylhydrolase activity; assay type: biochemical, Xanthophyllomyces dendrorhous; conditions: 30 minutes, 100 ng of enzyme; starch supplied by Avebe, 8100 Da
# Procedure: The tests were carried out in 30 minutes and with 100 ng of enzyme for each reaction. The molecular weight of the starch, supplied by Avebe, is 8100 Da.
# [5] = system: X. dendrorhous MYA-131; test: Degradation of starch in the medium of an X. dendrorhous culture, quantified with Lugol's iodine; assay type: cell-based, Xanthophyllomyces dendrorhous
# Procedure: X. dendrorhous MYA-131 grown in 100 ml of minimal medium with starch (MMS): 0.7% YNB (Yeast Nitrogen Base w/o Amino acids, DiFCO) (w/v), 2% starch (w/v), DIFCO) was cultured to produce α-glucosidase, and the culture continued for 150 hours. Cell growth was carried out and assessed as in the previous example. The stationary phase was reached after 75 hours of growth, at 3.4 ODU660. The cell-free fraction was obtained every 5-7 hours as in EXAMPLE 1.
# To that end, 0.05 ml of the cell-free fraction was mixed with 0.05 ml of 50 mM sodium phosphate buffer, pH 5.5 0.1 ml of Lugol's iodine and 2.5 ml of water were added to 0.025 ml of this mixture. The polysaccharide was spectrophotometrically quantified at 595 nm using a standard starch curve (1-10 mg/ml). The 100% starch value was that assessed in the initial culture medium which was used to carry out the inoculum. By using this methodology, a decrease of the starch in the extracellular medium for the first 30 hours of culture was not observed. 10, 20, 40 and 60% reductions of the polysaccharide concentration were obtained at 50, 60, 70 and 80 hours of culture, respectively. The last value, 60%, remained constant during prolonged growths of up to 300 hours.
# X. dendrorhous α-glucosidase (purified enzyme), sequence (A0A0U2M4R6 entry or part of it): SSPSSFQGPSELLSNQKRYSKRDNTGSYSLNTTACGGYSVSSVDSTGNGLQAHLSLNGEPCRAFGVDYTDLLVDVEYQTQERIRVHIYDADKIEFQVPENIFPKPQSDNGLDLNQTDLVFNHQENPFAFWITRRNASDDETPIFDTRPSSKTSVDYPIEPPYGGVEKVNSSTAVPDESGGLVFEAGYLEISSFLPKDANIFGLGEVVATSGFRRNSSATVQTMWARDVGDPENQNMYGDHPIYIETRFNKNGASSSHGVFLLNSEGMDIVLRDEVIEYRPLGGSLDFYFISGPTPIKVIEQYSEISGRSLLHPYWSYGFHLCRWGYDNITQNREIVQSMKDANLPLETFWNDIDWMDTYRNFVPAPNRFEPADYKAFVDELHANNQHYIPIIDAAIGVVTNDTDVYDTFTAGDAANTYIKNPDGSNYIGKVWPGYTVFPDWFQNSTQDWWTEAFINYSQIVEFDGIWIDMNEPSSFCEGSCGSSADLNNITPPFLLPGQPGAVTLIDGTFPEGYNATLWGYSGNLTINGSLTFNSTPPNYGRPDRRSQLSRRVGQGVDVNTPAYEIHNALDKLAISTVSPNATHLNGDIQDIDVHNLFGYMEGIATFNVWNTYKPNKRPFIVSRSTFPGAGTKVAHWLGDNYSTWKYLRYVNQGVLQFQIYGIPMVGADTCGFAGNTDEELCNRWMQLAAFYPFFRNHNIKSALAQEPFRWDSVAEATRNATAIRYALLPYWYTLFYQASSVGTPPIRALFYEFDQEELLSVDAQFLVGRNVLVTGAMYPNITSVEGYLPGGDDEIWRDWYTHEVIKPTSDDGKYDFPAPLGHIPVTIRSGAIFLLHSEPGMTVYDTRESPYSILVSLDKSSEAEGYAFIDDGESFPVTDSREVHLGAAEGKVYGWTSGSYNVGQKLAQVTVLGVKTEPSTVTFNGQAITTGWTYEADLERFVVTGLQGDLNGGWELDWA
Compound,composition of the system [1] [g/L],Composition of the reaction mixture ([1]; reaction time 27 h) [grams/liter],Composition of the reaction mixture ([1]; reaction time 117 h) [grams/liter],Composition of the reaction mixture ([1]; reaction time 143 h) [grams/liter],Composition of the reaction mixture ([1]; reaction time 216 h) [grams/liter],Composition of the reaction mixture ([1]; reaction time 288 h) [grams/liter],hydrolytic activity observed on substrate [2],Specific activity [2] [U/μg],Vmax [4] [μg glucose min^−1],Specific activity [3] [U/μg],also measured
"OC[C@H]1O[C@H](OC[C@H]2O[C@H](O[C@H]3[C@H](O)[C@@H](O)[C@@H](O[C@H]4[C@H](O)[C@@H](O)[C@@H](O)O[C@@H]4CO)O[C@@H]3CO)[C@H](O)[C@@H](O)[C@@H]2O)[C@H](O)[C@@H](O)[C@@H]1O [compound 7, α-D-Glu-(1→6)-α-D-Glu-(1→4)-α-D-Glu-(1→4)-α-D-Glu]",17.6,0,8.8,10.1,14.5,17.6,,,,,
OC[C@H]1O[C@H](OC[C@H]2OC(O)[C@H](O)[C@@H](O)[C@@H]2O)[C@H](O)[C@@H](O)[C@@H]1O (stereo partly shown) [isomaltose],14.4,0,12.7,12.4,13.1,14.4,No activity,,,,α-glucosidase activity detected on substrate [3]: not detected
OC[C@H]1O[C@H](OC[C@H]2O[C@H](OC[C@H]3OC(O)[C@H](O)[C@@H](O)[C@@H]3O)[C@H](O)[C@@H](O)[C@@H]2O)[C@H](O)[C@@H](O)[C@@H]1O (stereo partly shown) [isomaltotriose],,,,,,,No activity,,,,α-glucosidase activity detected on substrate [3]: not detected
OC[C@H]1O[C@H](O[C@H]2[C@H](O)[C@@H](O)[C@@H](O[C@H]3[C@H](O)[C@@H](O)[C@@H](O[C@H]4[C@H](O)[C@@H](O)[C@@H](O[C@H]5[C@H](O)[C@@H](O)[C@@H](O[C@H]6[C@H](O)[C@@H](O)[C@@H](O[C@H]7[C@H](O)[C@@H](O)C(O)O[C@@H]7CO)O[C@@H]6CO)O[C@@H]5CO)O[C@@H]4CO)O[C@@H]3CO)O[C@@H]2CO)[C@H](O)[C@@H](O)[C@@H]1O (stereo partly shown) [maltoheptose],,,,,,,,997,15,24,
OC[C@H]1O[C@H](O[C@H]2[C@H](O)[C@@H](O)[C@@H](O[C@H]3[C@H](O)[C@@H](O)[C@@H](O[C@H]4[C@H](O)[C@@H](O)C(O)O[C@@H]4CO)O[C@@H]3CO)O[C@@H]2CO)[C@H](O)[C@@H](O)[C@@H]1O (stereo partly shown) [maltotetraose],15.4,0,11.0,12.4,15.1,15.4,,,,,
OC[C@H]1O[C@H](O[C@H]2[C@H](O)[C@@H](O)[C@@H](O[C@H]3[C@H](O)[C@@H](O)C(O)O[C@@H]3CO)O[C@@H]2CO)[C@H](O)[C@@H](O)[C@@H]1O (stereo partly shown) [maltotriose],35.9,26.3,42.6,42.8,39.3,35.9,,647,12,18,
OC[C@H]1O[C@H](OC[C@H]2O[C@H](O[C@H]3[C@H](O)[C@@H](O)C(O)O[C@@H]3CO)[C@H](O)[C@@H](O)[C@@H]2O)[C@H](O)[C@@H](O)[C@@H]1O (stereo partly shown) [panose],21.2,5.7,14.7,16.1,18.9,21.2,,,,,
dextran,,,,,,,No activity,,,,α-glucosidase activity detected on substrate [3]: not detected
glycogen,,,,,,,,197,,,
maltodextrin,,,,,,,,747,,21,
maltose,69.2,183.4,103.0,94.4,78.1,69.2,,1172,23,30,
pullulan,,,,,,,No activity,,,,
starch,,,,,,,,,4.29,23,"Kcat [4]: 1.43 s⁻¹; Km [4]: 880 µM; reduction of the polysaccharide concentration ([5]; 50 hours of culture): 10%; reduction of the polysaccharide concentration ([5]; 60 hours of culture): 20%; reduction of the polysaccharide concentration ([5]; 70 hours of culture): 40%; reduction of the polysaccharide concentration ([5]; 80 hours of culture, remained constant up to 300 hours): 60%; decrease of the starch in the extracellular medium ([5]; first 30 hours of culture): not observed"
